Source: PubChem BioAssay (NCI)
Values joined by “and” are separate entries in the source; they are usually repeats but may differ in a detail not shown here. Equal entries are not always repeated.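 Five compound concentrations were applied to cells in 96-well plates for 48 hours; endpoints were derived by simple linear interpolation of the resulting dose-response curve. At the GI50, growth is halved. TGI marks complete inhibition of growth.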

Experiments:
Experiment in all cases: DTP human tumour cell line panel, 48 h
A498 renal = tested on: A498 renal
UACC-62 melanoma = tested on: UACC-62 melanoma
SK-MEL-2 melanoma = tested on: SK-MEL-2 melanoma
K-562 leukemia = tested on: K-562 leukemia
NCI-H522 lung = tested on: NCI-H522 lung
RXF 393 renal = tested on: RXF 393 renal
786-0 renal = tested on: 786-0 renal
MOLT-4 leukemia = tested on: MOLT-4 leukemia
MDA-MB-435 = tested on: MDA-MB-435
HS 578T breast = tested on: HS 578T breast

| SMILES | TGI (A498 renal) | TGI (UACC-62 melanoma) | TGI (SK-MEL-2 melanoma) | TGI (K-562 leukemia) | TGI (NCI-H522 lung) | TGI (RXF 393 renal) | TGI (786-0 renal) | TGI (MOLT-4 leukemia) | TGI (MDA-MB-435) | GI50 (HS 578T breast) | GI50 (UACC-62 melanoma) | GI50 (SK-MEL-2 melanoma) | GI50 (K-562 leukemia) | GI50 (NCI-H522 lung) | GI50 (786-0 renal) | GI50 (MOLT-4 leukemia) | GI50 (MDA-MB-435) | TGI (HS 578T breast) | GI50 (RXF 393 renal) | GI50 (A498 renal) |
| --- | --- | --- | --- | --- | --- | --- | --- | --- | --- | --- | --- | --- | --- | --- | --- | --- | --- | --- | --- | --- |
| Cc1cc2c(cc1C)[n+](=O)c(C(=O)CC(=O)C(=O)Nc1c(C(C)C)cccc1C(C)C)c(C)n2[O-] | > 100 µM | > 100 µM | > 100 µM | > 100 µM | > 100 µM | > 100 µM | > 100 µM | > 100 µM |  |  |  |  |  |  |  |  |  |  |  |  |
| COc1ccc(CNc2cc(OC)c(OC)c(OC)c2)cc1 | > 83.4 µM | > 100 µM | > 100 µM | > 44.4 µM | 31 µM | 23 µM | > 100 µM | > 77.8 µM |  |  |  |  |  |  |  |  |  |  |  |  |
| CC1(C)CC(/C=C2/OC(=O)c3ccccc32)=C(C#N)C(=O)O1 |  | > 100 µM | > 100 µM | > 100 µM | > 100 µM |  | > 100 µM | > 100 µM |  |  |  |  |  |  |  |  |  |  |  |  |
| COc1cccc(-c2cc(=O)c3cc(N(C)C)ccc3[nH]2)c1 |  | > 100 µM |  | 0.0887 µM | 0.0445 µM and 0.0205 µM |  | > 100 µM and 36.7 µM | 0.0401 µM and 0.0259 µM | 0.0103 µM and 0.00361 µM | 0.0221 µM and 0.00461 µM | 0.0163 µM and 0.00363 µM | 0.0359 µM and 0.00735 µM | 0.00937 µM and 0.00404 µM | 0.0184 µM and 0.00392 µM | 0.0368 µM and 0.0096 µM | 0.0435 µM and 0.00642 µM |  |  |  |  |
| CCCCN(CCCC)C(=O)C(=O)C(C#N)c1ccc(C)cc1 (centres undefined) | > 100 µM | > 100 µM | > 100 µM | > 100 µM | > 100 µM | > 100 µM | > 100 µM | > 100 µM |  |  |  |  |  |  |  |  |  |  |  |  |
| CSc1ccc(C2=NN(C(C)=O)C(c3cc(C)cs3)C2)cc1 (centres undefined) |  | 98.4 µM | > 100 µM | > 100 µM | 74.9 µM | > 100 µM | > 100 µM | 44.1 µM | > 100 µM | 22.3 µM | 11.2 µM | 39 µM | 9.31 µM | 17.9 µM | 40 µM | 7.26 µM | 23.4 µM | 88.6 µM | 56.7 µM |  |
| CN(C)CCNc1cc(-c2ccccc2)nc2ccccc12 | 13.6 µM | 30 µM | 24.9 µM | 12.3 µM | 27.8 µM |  | 23.8 µM | 11.6 µM | 20.6 µM | 12 µM | 13.7 µM | 11.3 µM | 2.6 µM | 8.11 µM | 6.87 µM | 3.27 µM | 6.12 µM | 37.1 µM |  | 2.01 µM |
| Cc1nc2c(nc1Cl)nc(Oc1ccc(Cl)cc1)c1ccccc12 |  | > 100 µM | > 100 µM | > 100 µM | > 100 µM |  | 38.3 µM | > 100 µM |  |  |  |  |  |  |  |  |  |  |  |  |
| OCc1ccc2[n+](c1)CCC1c3ccccc3NC21 (centres undefined) |  | > 300 µM | > 300 µM | > 300 µM | > 300 µM | > 300 µM | > 300 µM | > 300 µM |  |  |  |  |  |  |  |  |  |  |  |  |
| CCOC(=O)/C=C(/C(=O)OCC)n1cc(Cl)c(=O)n(CC(=O)OCC)c1=O | 34.6 µM | 8.88 µM and 33.6 µM | 11.2 µM and 46.3 µM | 25 µM and > 100 µM | 2.88 µM | 8.55 µM and 2.59 µM | 2.48 µM and 7.5 µM | 25 µM and 10.5 µM | 9.95 µM and 36.6 µM |  | 18.6 µM | 26.2 µM | 4.24 µM |  | 2.78 µM | 3.29 µM |  |  | 0.298 µM |  |
| O=C(CI)NC1Oc2ccccc2-c2oc(=O)c(-c3ccccc3)cc21 (centres undefined) | 3.62 µM | 3.25 µM | 5.43 µM | 11.9 µM |  | 3 µM | 1.58 µM |  | 3.16 µM | 2.4 µM | 1.73 µM | 2.17 µM | 1.32 µM |  | 0.441 µM |  | 1.68 µM | 7.28 µM | 1.5 µM | 1.85 µM |
| Cc1ccc2c(c1)C(=O)/C(=C/c1ncc([N+](=O)[O-])n1C)O2 | 6.63 µM | 3.84 µM | 3.54 µM | > 24.9 µM | 3.38 µM |  | 5.31 µM | 7.43 µM | 1.88 µM | 1.94 µM | 1.38 µM | 1.88 µM | 0.598 µM | 1.5 µM | 2.16 µM | 0.5 µM | 0.371 µM | > 23.2 µM |  | 1.99 µM |
| CCCCCCCCCCCCCC(=O)OC1CC(=O)OC1CO (centres undefined) | > 100 µM | 51.1 µM | > 100 µM | 58.8 µM |  | > 100 µM | > 100 µM | 52.1 µM |  |  |  |  |  |  |  |  |  |  |  |  |
| COc1ccc2ccc3c(c2c1)CN1CCc2cc(OC)c(OC)cc2C1C3 (centres undefined) |  | > 100 µM | > 100 µM | > 100 µM | > 100 µM |  | > 100 µM | > 100 µM |  |  |  |  |  |  |  |  |  |  |  |  |
| Clc1ccc(C2N3CCCCC3[C@@H]3c4[nH]c5ccccc5c4CCN23)cc1 (some centres undefined) | > 100 µM | > 100 µM | > 100 µM | > 100 µM |  | 78.7 µM | > 100 µM | > 100 µM |  |  |  |  |  |  |  |  |  |  |  |  |
| N#CSCC1CC(O)(c2ccccc2)C(c2ccccc2)C(c2ccc(Cl)cc2)O1 (centres undefined) | 5.63 µM | 2.81 µM | 4.37 µM | 5.42 µM |  | 3.24 µM | 3.28 µM |  | 2.88 µM | 3.22 µM | 1.41 µM | 2.33 µM | 1.37 µM |  | 1.74 µM |  | 1.4 µM | 81 µM | 1.62 µM | 2.16 µM |
| Cc1ccc(CS/C(=C\c2ccc([N+](=O)[O-])cc2)C(=O)c2ccc(F)cc2)cc1 | 36 µM | 8.77 µM | 40.5 µM | > 100 µM |  | 31.8 µM | 4.99 µM | > 100 µM | 6.49 µM | 2.35 µM | 2.46 µM | 15.3 µM | 3.21 µM |  | 2.11 µM | 3.35 µM | 2.41 µM | 6.34 µM | 13 µM | 15.6 µM |
| COc1cc(/C=C/c2cc(/C=C/c3ccc(O)c(OC)c3)n(-c3ccccc3)n2)ccc1O | 1.82 µM |  | 2.03 µM |  |  | 0.888 µM | 1.83 µM | > 100 µM | 0.191 µM | 0.157 µM |  | 0.266 µM |  |  | 0.582 µM | 0.347 µM | 0.0415 µM | > 23.2 µM | 0.258 µM | 0.575 µM |
